Experimental data taken from patent US20240409609A1, “REVERSIBLE LYSINE COVALENT MODIFIERS OF EGFR AND USES THEREOF” (Terremoto Biosciences, Inc., priority 2021, published 2024).

Tests used:
WT-EGFR = WT-EGFR (Homo sapiens (Human), UniProt P00533); assay: EGFR jump dilution study; type: biochemical; conditions: 100-fold dilution, 1 mM ATP, up to 10 hrs
Experimental: Enzyme:inhibitor complexes were pre-formed at EGFR 100Y^1 final reaction concentration by incubating enzyme with an inhibitor at the greater concentration of either 10Y^1 inhibitor IC50, or 1:1.2 stoichiometry with enzyme.
After incubating enzyme:inhibitor complexes on ice for 30 min, reactions were diluted in two steps 100-fold into reaction buffer supplemented with 1 mM ATP, and 20 uM AssayQuant substrate (AQT0734), with final reaction volumes of 20 μL in a 384 well reaction plate. Wells were read immediately and at timepoints post-dilution for up to 10 hrs in a PerkinElmer Ensight plate reader, according to the AssayQuant manufacturer's instructions.
Data processing: Raw fluorescence signal was first background corrected by subtracting the fluorescence intensity of wells containing only the AssayQuant substrate, and no enzyme. Enzyme activity was normalized relative DMSO controls for each enzyme at each timepoint. In this way, DMSO-treated wells appear as a constant normalized activity=1 throughout the assay.
The X-axis of each of the three graphs represents the time after dilution that the enzyme activity was measured, with t=0 representing the time of jump dilution. The Y-axis of each graph provides the enzymatic activity at each time point. Enzymatic activity is normalized to the DMSO-treated control samples (i.e., the same enzyme variant treated with DMSO instead of compound). As such, a DMSO-normalized value of 1.0 represents full enzymatic activity (i.e., equivalent to the DMSO-treated control), while a value below 1.0 represents reduced activity relative to control (i.e., some degree of enzyme inhibition at the time measured). The data points over time (e.g., from 0 to 600 minutes post-dilution) are therefore indicative of the off-rate for the compound. […] Thus, the jump-dilution data provided a qualitative estimate of the off-rate kinetics for each compound against the panel of EGFR variants. Experiments were run in duplicate, resulting in two different data sets for each graph.

EGFR WT = EGFR WT (Homo sapiens (Human), UniProt P00533); assay: EGFR biochemical assay (AssayQuant chelation-enhanced fluorescence); conditions: 30 min preincubation, reaction time 360 min
Chain of EGFR WT (P00533 668-1210): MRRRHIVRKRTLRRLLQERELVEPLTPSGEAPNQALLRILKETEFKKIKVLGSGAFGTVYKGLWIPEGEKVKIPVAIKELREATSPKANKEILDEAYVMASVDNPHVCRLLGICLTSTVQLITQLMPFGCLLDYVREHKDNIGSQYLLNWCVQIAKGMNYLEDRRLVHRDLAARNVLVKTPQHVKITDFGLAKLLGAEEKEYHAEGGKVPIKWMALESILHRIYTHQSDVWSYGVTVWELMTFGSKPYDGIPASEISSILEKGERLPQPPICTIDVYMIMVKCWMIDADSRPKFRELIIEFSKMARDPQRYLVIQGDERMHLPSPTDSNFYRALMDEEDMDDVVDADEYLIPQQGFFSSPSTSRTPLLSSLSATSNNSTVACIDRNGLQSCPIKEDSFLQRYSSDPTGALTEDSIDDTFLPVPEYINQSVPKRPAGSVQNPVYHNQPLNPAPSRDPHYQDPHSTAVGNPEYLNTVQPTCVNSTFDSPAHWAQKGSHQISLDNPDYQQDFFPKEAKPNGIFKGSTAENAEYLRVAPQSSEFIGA

Chain of WT-EGFR (P00533 668-1210): as above

off-rate kinetics after jump dilution (WT-EGFR)	IC50 (EGFR WT) [nM]	Structure (SMILES)
slow-off kinetics		COc1cc(N2CCC(N3CCN(C)CC3)CC2)ccc1Nc1ncc(-c2ccc(O)c(C=O)c2)c(Nc2ccccc2)n1 [Compound 3]
slow-off kinetics		COc1cc(N(C)CCN(C)C)c(NC(C)=O)cc1Nc1nccc(-c2cn(Cc3cccc(C=O)c3O)c3ccccc23)n1 [Compound 7]
slow-off kinetics	> 1000	COc1cc(N2CCC(N3CCN(C)CC3)CC2)ccc1Nc1ncc(Cl)c(Nc2ccccc2-c2cccc(C=O)c2O)n1 [Compound 6]

Structure (SMILES)	off-rate kinetics after jump dilution (WT-EGFR)	IC50 (EGFR WT) [nM]
C#CCNC(=O)c1cc(Nc2cc(C3CC3)[nH]n2)nc(N2CCN(Cc3ccc(C=O)c(O)c3)CC2)n1 [Compound 1]	enzymatic activity quickly returned following dilution	
